Reference: patent publication US20110184006A1, “METHOD AND COMPOSITION FOR THERMALLY STABILIZING VITAMIN C WITHIN NANO LAYERS OF MONTMORILLONITE CLAY” (NATIONAL RESEARCH COUNCIL OF SRI LANKA, priority 2010, published 2011)

Legend:
[1] = in blood plasma; cited from earlier work
[2] = Thermal stability: FTIR spectra after heating for 30 minutes; type: physicochemical
Protocol: Infrared (IR) spectroscopy was used to quantify samples. Nicolet 6700 FT-IR spectrophotometer was used to measure absorbance or transmittance value of samples. All samples were finely ground and mixed with fused KBr to form pellets in the measurements. Typical parameters included: scan range of 400-4000 cm^−1; resolution 4.00 cm^−1; and the number of scans were 32.
The FTIR spectra of the 0.5000 g calcium montmorillonite chelated with 0.2500 g of LAA heated at 100° C., 120° C., 140° C., 160° C., 180° C. and 200° C. for 30 minutes are shown in FIG. 10. As reference, the FTIR spectra of LAA at room temperature and after heating to 90, 120, 140, 160, 180 and 200° C. for 30 minutes are also shown in FIG. 10.
Further at 140° C., the structure of LAA is altered as the carbonyl stretch at 1750 cm^−1 was broader and the fingerprint region was changed.
First, 0.1000 g samples of the chelated clays were prepared as described in previous examples. Then to determine the thermal stability, 0.1000 g samples of 0.5000 g calcium montmorillonite chelated with 0.0500 g, 0.1000 g, 0.2500 g and 0.5000 g of LAA, were heated in an oven at 90° C. for 30 minutes. Pellets of the cooled samples were prepared with fused KBr and FTIR spectra of these samples were obtained. Reference spectra of the calcium montmorillonite chelated clays before heating were also obtained for comparison. […]

- structure (FTIR) after heating at 140° C. ([2]; 140° C., 30 minutes): altered
Structure (SMILES): O=C1O[C@H]([C@@H](O)CO)C(O)=C1O [LAA, L-ascorbic acid]
- biological half-life [1]: about 30 minutes
- change of structure (FTIR) as the temperature is increased ([2]; heated 30 minutes at 90/100 to 200° C.): changes gradually as the temperature is increased until it is completely destroyed
